Data on 5 compounds can be found in US9149445B2, “Inhibition of glycerol-3-phosphate acyltransferase (GPAT) and associated enzymes for treatment of viral infections” (THE TRUSTEES OF PRINCETON UNIVERSITY, priority 2009, dated 2015).

pIC50: −log10 of the molar value.

One assay has as its system herpes simplex virus-1. Kind of assay: HSV-1 replication in serum-starved fibroblasts, infectious progeny by TCID50 assay. It counts as cell-based. The conditions noted are these: multiplicity 0.01 TCID50 units/cell. As to the method:
FIG. 4. Dose-dependent Inhibition of Herpes Simplex Virus-1 Replication by Inhibition of GPAT. Serum-starved fibroblasts were infected with herpes simplex virus-1 at a multiplicity of 0.01 TCID50 units/cell. After adsorption for 1 h, cultures were re-fed with serum-free medium containing the indicated concentrations of FAS 115 or with DMSO, the solvent used to dissolve FAS 115. Medium was harvested at the indicated times after infection and the production of infectious progeny was determined by TCID50 assay on fibroblasts.
Serum-starved fibroblasts were infected with herpes simplex virus-1 at a multiplicity of 0.01 TCID50 units/cell. After adsorption for 1 h, cultures were re-fed with serum-free medium containing concentrations of 2.5μ/ml, 5μ/ml and 10μ/ml of FAS 115 of FAS 115 or with DMSO, the solvent used to dissolve FAS 115. The medium was assayed daily for five days and the production of infectious progeny was determined by TCID50 assay on fibroblasts. […] At higher concentrations, the concentration of infections virus was reduced to 1 TCID50 unit/ml or less after 5 days. (FIG. 4).

For a further assay, the system named is human cytomegalovirus. As to the kind of experiment: HCMV late protein expression by Western blot in infected fibroblasts. Format: cell-based. The following applies: intermediate and high concentrations (5μ/ml and 10μ/ml); 96 hours after infection; multiplicity 3.0 TCID50 units/cell; compared to tubulin and IE-1. As to the method: FIG. 3. Dose-dependent Inhibition of Human Cytomegalovirus Late Protein Expression by Inhibition of GPAT. Serum-starved fibroblasts were infected with human cytomegalovirus at a multiplicity of 3.0 TCID50 units/cell. After adsorption for 1 h, cultures were re-fed with serum-free medium containing the indicated concentrations of FAS 115 or with DMSO, the solvent used to dissolve FAS 115. Cells were harvested at 96 hours after infection and viral protein expression was assessed by Western blot. IE-1 is a viral protein expressed immediately early during infection. pp65 and pp28 are viral proteins expressed late during HCMV infection. Tubulin is a loading control.
Serum-starved fibroblasts were infected with human cytomegalovirus at a multiplicity of 3.0 TCID50 units/cell. After adsorption for 1 h, cultures were re-fed with serum-free medium containing 2.5μ/ml, 5μ/ml and 10μ/ml of FAS 115 or with DMSO, the solvent used to dissolve FAS 115. Cells were harvested at 96 hours after infection and viral protein expression was assessed by Western blot. IE-1 is a viral protein expressed during the immediate-early phase of infection. pp65 and pp28 are viral proteins expressed late during HCMV infection. Tubulin is a loading control. […] (FIG. 3).
(In general: In western blotting, separated proteins are transferred to a membrane and probed.)

The test system of the next assay is GPAT. The conditions noted are these: cited from earlier work.
Another assay has as its system HCMV. As to the kind of experiment: HCMV replication in serum-starved fibroblasts, infectious progeny by TCID50 assay. Format: cell-based, human cytomegalovirus. The following applies: multiplicity 0.1 TCID50 units per cell. As to the method:
FIG. 2. Inhibition of HCMV Replication by Inhibition of GPAT. Serum-starved fibroblasts were infected with HCMV at a multiplicity of 0.1 TCID50 units per cell. After adsorption for 1 h, cultures were re-fed with serum-free medium containing concentrations of 2.5 μg/ml, 5 μg/ml and 10 μg/ml of FAS 115 or with DMSO, the solvent used to dissolve FAS 115. Medium was assayed at 0, 2, 4, 6, 8, 10 and 12 days after infection and the production of infectious progeny was determined by TCID50 assay on fibroblasts.
Serum-starved fibroblasts were infected with HCMV at a multiplicity of 0.1 TCID50 units per cell. After adsorption for 1 h, cultures were re-fed with serum-free medium containing concentrations of 2.5μ/ml, 5μ/ml and 10μ/ml of FAS 115 or with DMSO, the solvent used to dissolve FAS 115. The medium was assayed at 0, 2, 4, 6, 8, 10 and 12 days after infection and the production of infectious progeny was determined by TCID50 assay on fibroblasts. […] At the highest concentration, production of virus was not observed on day 12 after infection. (FIG. 2).
Cell Lines, Viral Stock. Low passage fibroblasts (passage 6-8) were cultured in a medium containing 10% fetal bovine serum. Bacterial artificial chromosome-derived HCMV AD 169 strain (BADWT) was propagated in human foreskin fibroblasts (HFFs), concentrated via a 20% sorbitol cushion, and resuspended as a stock in serum-free media.

The next assay has as its target mTOR (Homo sapiens, UniProt P42345). The following applies: selective mTOR inhibitors; cited from earlier work.
Assay [1] deals with panel of 140 protein kinases. The conditions noted are these: cited from earlier work.

Consider `CCCCCCCC[C@@]1(C)SC(=O)C=C1OC(=O)OCC` [FAS 115], for which, in the assay with herpes simplex virus-1 (higher concentrations (5μ/ml, 10μ/ml), after 5 days), the “concentration of infections virus” value is given as ≤ 1 TCID50 unit/ml. Further, the “viral titers lower than in untreated cells” value in the assay on herpes simplex virus-1 (lowest FAS 115 concentration (2.5μ/ml)) is listed as “about an order of magnitude”. Also, in the assay with human cytomegalovirus, the “expression of pp28” value was “noticeably reduced” and the “expression of pp65” value is “noticeably reduced”. In addition, the “inhibition of GPAT” value in the assay on GPAT was “inhibits GPAT”. For the same compound, the production of virus entry in the assay with HCMV (highest concentration (10μ/ml), day 12 after infection) is on record as “not observed”. For the same compound, in the assay with HCMV (lowest FAS 115 concentration (2.5μ/ml), versus DMSO), the viral titers reduced entry is on record as “about an order of magnitude”.

A word on the pIC50: it is the IC50 on a negative log10 scale, so that one unit is a factor of ten. As to `c1cncc(CN2CCC(n3ncc4c(N5CCOCC5)nc(-c5ccc6[nH]ccc6c5)nc43)CC2)c1` [WAY-600], the negative logarithm of the IC50 (pIC50) on mTOR is 8.05.

As for `COC(=O)Nc1ccc(-c2nc(N3CCOCC3)c3cnn(C4CCN(C(=O)OC)CC4)c3n2)cc1` [WYE354], at mTOR, the pIC50 is 8.30.

For the compound `CNC(=O)Nc1ccc(-c2nc(N3CC4CCC(C3)O4)c3cnn(C4CCC5(CC4)OCCO5)c3n2)cc1` [WYE-125132], the pIC50 at mTOR was 9.72.

With `Cc1c(C(=O)N2CCOc3ccc(-c4ccc(N)nc4)cc3C2)ccc(S(C)(=O)=O)c1F` [XL388], the pIC50 in assay [1] is < 5.52.
